From US8557960B2, “Peptide for augmenting and expression of BDNF and pharmaceutical composition for prevention and treatment of neurodegenerative diseases including Alzheimer's disease or Parkinson's disease, comprising the same” (Sungkyunkwan University, priority 2009, dated 2013)

System: BDNF
Assay: Assay for BDNF expression in dopamine-reactive human cell line SH-SY5Y (Western blotting)
Type: cell-based
Conditions: SH-SY5Y cells, 12 hrs treatment, FIG. 2
Experimental: SH-SY5Y cells were seeded at a density of 2×10^5 cells/well into 6-well plates (NUNC) and incubated at 34° C. for 12 hrs in a 5% CO2 incubator and then for an additional 12 hrs in the presence of one of NP 2 to 9 at a concentration of 1 pM, 10 pM, 100 pM, 1 nM, 10 nM, 100 nM, or 1 μM. The cells in each well were washed twice with 1 mL of 1×PBS […], treated with 10 μL of protease inhibitor (Amersham) per 1 mL of RIPA, and collected into 1.5 mL tubes using a cell lifter (Corning). After centrifugation at 4° C. and 9000 rpm for 5 min (MiCRO 17 TR, Hnil Science Industrial Co., Ltd.) to pelletize cell membranes, the supernatants containing proteins were transferred into new 1.5 mL tubes and quantitatively measured for protein level using a Bradford assay.
20 μL of each sample was loaded onto 15% acrylamide gel, prepared using a 1.5 mm Western blotting gel caster (Bio-Rad), and run for 2.5 hrs in the presence of an electric field of 100 V using an electrophoresis power supply (EPS 601, Amersham). The proteins run on the gel were transferred onto a PVDF membrane (Polyvinylidene Difluoride, Millipore) at 400 mA for 2.5 hrs in a transfer tank (Mighty small transphor, Amersham) using an electrophoresis power supply (EPS301, GE healthcare). The PVDF membrane was blocked for 1 hr with 7% skim milk (Difco™ Skim milk, BD) and incubated overnight with a mouse anti-human BDNF monoclonal antibody at a dilution ratio of 1:500. Thereafter, the membrane was washed for 2 hrs 0.05% TBST (Tris-Buffered Saline Tween 20) (this buffer was replaced every hour) and incubated for 1 hr with goat anti-mouse IgG:HRP (IgG:Horseradish Peroxidase Conjugate, SC-2005, Santa Cruz Biotechnology) at a ratio of 1:500. After washing the membrane with 0.05% TBST for 2 hrs (the buffer was replaced every hour), proteins were detected using a chemiluminescent HRP substrate kit (Millipore), and the results are shown in FIG. 2.

Row | Substance | BDNF expression (relative level of BDNF to β-actin vs control)
1 | Met-Asp-Gly [NP-5] | even a very small amount of NP-5 and NP-6 could augment BDNF expression
2 | Val-Gly [NP-9] | used at the same or less than was the amount of the tripeptides so as to induce BDNF expression
3 | Met-Thr-Gly [NP-6] | even a very small amount of NP-5 and NP-6 could augment BDNF expression
